Results reported in ChEMBL document CHEMBL3865846, “Synthesis and biological evaluation of ricinoleic acid-based lipoamino acid derivatives” (Bioorg Med Chem Lett, 2016).
In brackets after ≈: the same amount, converted by molar mass. Values belong to the molecule of their own block, whether it stands above or below them.

Legend:
Assay type in all cases: functional
[1] = tested on: Candida albicans; assay: Antimicrobial activity against Candida albicans MTCC3958 measured after 24 hrs by well-diffusion method; details: MTCC3958, 24 h
[2] = tested on: Candida albicans; assay: Antimicrobial activity against Candida albicans MTCC854 measured after 24 hrs by well-diffusion method; details: MTCC854, 24 h
[3] = tested on: Candida albicans; assay: Antimicrobial activity against Candida albicans MTCC4748 measured after 24 hrs by well-diffusion method; details: MTCC4748, 24 h
[4] = tested on: Candida albicans; assay: Antimicrobial activity against Candida albicans MTCC227 measured after 24 hrs by well-diffusion method; details: MTCC227, 24 h
[5] = tested on: Candida albicans; assay: Antimicrobial activity against Candida albicans MTCC7315 measured after 24 hrs by well-diffusion method; details: MTCC7315, 24 h
[6] = tested on: Staphylococcus aureus; assay: Antimicrobial activity against Staphylococcus aureus MLS16 MTCC2940 measured after 24 hrs by well-diffusion method; details: MLS16 MTCC2940, 24 h
[7] = tested on: Bacillus subtilis; assay: Antimicrobial activity against Bacillus subtilis MTCC121 measured after 24 hrs by well-diffusion method; details: MTCC121, 24 h
[8] = tested on: Candida albicans; assay: Antimicrobial activity against Candida albicans MTCC183 measured after 24 hrs by well-diffusion method; details: MTCC183, 24 h
[9] = tested on: Micrococcus luteus; assay: Antimicrobial activity against Micrococcus luteus MTCC2470 measured after 24 hrs by well-diffusion method; details: MTCC2470, 24 h
[10] = tested on: Pseudomonas aeruginosa; assay: Antimicrobial activity against Pseudomonas aeruginosa MTCCM2453 measured after 24 hrs by well-diffusion method; details: MTCCM2453, 24 h
[11] = tested on: Candida albicans; assay: Antimicrobial activity against Candida albicans MTCC1637 measured after 24 hrs by well-diffusion method; details: MTCC1637, 24 h
[12] = tested on: Candida albicans; assay: Antimicrobial activity against Candida albicans MTCC3018 measured after 24 hrs by well-diffusion method; details: MTCC3018, 24 h
[13] = tested on: Candida albicans; assay: Antimicrobial activity against Candida albicans MTCC3017 measured after 24 hrs by well-diffusion method; details: MTCC3017, 24 h
[14] = tested on: Escherichia coli; assay: Antimicrobial activity against Escherichia coli MTCC739 measured after 24 hrs by well-diffusion method; details: MTCC739, 24 h
[15] = tested on: Raoultella planticola; assay: Antimicrobial activity against Klebsiella planticola MTCC530 measured after 24 hrs by well-diffusion method; details: MTCC530, 24 h
[16] = tested on: Staphylococcus aureus; assay: Antimicrobial activity against Staphylococcus aureus MTCC96 measured after 24 hrs by well-diffusion method; details: MTCC96, 24 h
[17] = tested on: Bacillus subtilis; assay: Bactericidal activity against Bacillus subtilis MTCC121 measured after 24 hrs; details: MTCC121, 24 h
[18] = tested on: Candida parapsilosis; assay: Fungicidal activity against Candida parapsilosis MTCC1744 measured after 24 hrs; details: Lodderomyces parapsilosis, MTCC1744, 24 h
[19] = tested on: Candida parapsilosis; assay: Antimicrobial activity against Candida parapsilosis MTCC1744 measured after 24 hrs by well-diffusion method; details: Lodderomyces parapsilosis, MTCC1744, 24 h
[20] = tested on: Candida albicans; assay: Fungicidal activity against Candida albicans MTCC3018 measured after 24 hrs; details: MTCC3018, 24 h
[21] = tested on: Candida albicans; assay: Fungicidal activity against Candida albicans MTCC183 measured after 24 hrs; details: MTCC183, 24 h
[22] = tested on: Pichia kudriavzevii; assay: Anti-biofilm activity against Candida krusei MTCC3020 measured after 24 hrs by crystal violet-staining based method; details: MTCC3020, 24 h
[23] = tested on: Candida albicans; assay: Fungicidal activity against Candida albicans MTCC7315 measured after 24 hrs; details: MTCC7315, 24 h
[24] = tested on: [Candida] aaseri; assay: Fungicidal activity against Candida aaseri MTCC1962 measured after 24 hrs; details: Yamadazyma aaseri, MTCC1962, 24 h
[25] = tested on: Bacillus subtilis; assay: Anti-biofilm activity against Bacillus subtilis MTCC121 measured after 24 hrs by crystal violet-staining based method; details: MTCC121, 24 h
[26] = tested on: Nakaseomyces glabratus; assay: Fungicidal activity against Candida glabrata MTCC3019 measured after 24 hrs; details: MTCC3019, 24 h
[27] = tested on: Candida albicans; assay: Fungicidal activity against Candida albicans MTCC3958 measured after 24 hrs; details: MTCC3958, 24 h
[28] = tested on: Candida albicans; assay: Fungicidal activity against Candida albicans MTCC1637 measured after 24 hrs; details: MTCC1637, 24 h
[29] = tested on: Staphylococcus aureus; assay: Bactericidal activity against Staphylococcus aureus MLS16 MTCC2940 measured after 24 hrs; details: MLS16 MTCC2940, 24 h
[30] = tested on: Candida albicans; assay: Fungicidal activity against Candida albicans MTCC227 measured after 24 hrs; details: MTCC227, 24 h
[31] = tested on: Pichia sporocuriosa; assay: Antimicrobial activity against Issatchenkia hanoiensis MTCC4755 measured after 24 hrs by well-diffusion method; details: MTCC4755, 24 h
[32] = tested on: Nakaseomyces glabratus; assay: Antimicrobial activity against Candida glabrata MTCC3019 measured after 24 hrs by well-diffusion method; details: MTCC3019, 24 h
[33] = tested on: Staphylococcus aureus; assay: Anti-biofilm activity against Staphylococcus aureus MLS16 MTCC2940 measured after 24 hrs by crystal violet-staining based method; details: MLS16 MTCC2940, 24 h
[34] = tested on: Staphylococcus aureus; assay: Bactericidal activity against Staphylococcus aureus MTCC96 measured after 24 hrs; details: MTCC96, 24 h
[35] = tested on: Micrococcus luteus; assay: Anti-biofilm activity against Micrococcus luteus MTCC2470 measured after 24 hrs by crystal violet-staining based method; details: MTCC2470, 24 h
[36] = tested on: Candida albicans; assay: Fungicidal activity against Candida albicans MTCC4748 measured after 24 hrs; details: MTCC4748, 24 h
[37] = tested on: Micrococcus luteus; assay: Bactericidal activity against Micrococcus luteus MTCC2470 measured after 24 hrs; details: MTCC2470, 24 h
[38] = tested on: Pichia kudriavzevii; assay: Antimicrobial activity against Candida krusei MTCC3020 measured after 24 hrs by well-diffusion method; details: MTCC3020, 24 h
[39] = tested on: Pichia kudriavzevii; assay: Fungicidal activity against Candida krusei MTCC3020 measured after 24 hrs; details: MTCC3020, 24 h
[40] = tested on: Candida albicans; assay: Fungicidal activity against Candida albicans MTCC854 measured after 24 hrs; details: MTCC854, 24 h
[41] = tested on: Staphylococcus aureus; assay: Anti-biofilm activity against Staphylococcus aureus MTCC96 measured after 24 hrs by crystal violet-staining based method; details: MTCC96, 24 h

MIC [1]: > 125 µg/mL
MIC [2]: > 125 µg/mL
MIC [3]: > 125 µg/mL
MIC [4]: > 125 µg/mL
MIC [5]: > 125 µg/mL
MIC [6]: > 125 µg/mL
MIC [7]: > 125 µg/mL
MIC [8]: > 125 µg/mL
MIC [9]: > 125 µg/mL
MIC [10]: > 125 µg/mL
MIC [11]: > 125 µg/mL
MIC [12]: > 125 µg/mL
MIC [13]: > 125 µg/mL
MIC [14]: > 125 µg/mL
MIC [16]: > 125 µg/mL
SMILES: CCCCCCC(C/C=C\CCCCCCCC(=O)OC)NC(=O)[C@@H](N)Cc1ccccc1 (stereo partly drawn)
MIC [15]: > 125 µg/mL

MIC [1]: 7.8 µg/mL (≈ 21.2 µM)
MIC [2]: 7.8 µg/mL (≈ 21.2 µM)
MIC [19]: 7.8 µg/mL (≈ 21.2 µM)
MIC [3]: 7.8 µg/mL (≈ 21.2 µM)
IC50 [22]: 4.1 µg/mL (≈ 11.1 µM)
MIC [4]: 7.8 µg/mL (≈ 21.2 µM)
IC50 [25]: 2.9 µg/mL (≈ 7.87 µM)
MIC [5]: 7.8 µg/mL (≈ 21.2 µM)
MIC [6]: 7.8 µg/mL (≈ 21.2 µM)
MIC [7]: 7.8 µg/mL (≈ 21.2 µM)
MIC [8]: 7.8 µg/mL (≈ 21.2 µM)
MIC [31]: 7.8 µg/mL (≈ 21.2 µM)
MIC [32]: 7.8 µg/mL (≈ 21.2 µM)
IC50 [33]: 4.1 µg/mL (≈ 11.1 µM)
MIC [9]: 3.9 µg/mL (≈ 10.6 µM)
MIC [10]: > 125 µg/mL
MIC [11]: 7.8 µg/mL (≈ 21.2 µM)
IC50 [35]: 1.9 µg/mL (≈ 5.16 µM)
MIC [12]: 7.8 µg/mL (≈ 21.2 µM)
MIC [13]: 7.8 µg/mL (≈ 21.2 µM)
MIC [14]: > 125 µg/mL
MIC [38]: 7.8 µg/mL (≈ 21.2 µM)
MIC [16]: 3.9 µg/mL (≈ 10.6 µM)
IC50 [41]: 2.1 µg/mL (≈ 5.7 µM)
SMILES: CCCCCCC(C/C=C\CCCCCCCC(=O)OC)NC(=O)CN (stereo not drawn)
MBC [17]: 7.8 µg/mL (≈ 21.2 µM)
MFC [18]: 7.8 to 31.2 µg/mL (≈ 21.2 to 84.7 µM)
MFC [20]: 7.8 to 31.2 µg/mL (≈ 21.2 to 84.7 µM)
MFC [21]: 7.8 to 31.2 µg/mL (≈ 21.2 to 84.7 µM)
MFC [23]: 7.8 to 31.2 µg/mL (≈ 21.2 to 84.7 µM)
MFC [24]: 7.8 to 31.2 µg/mL (≈ 21.2 to 84.7 µM)
MFC [26]: 7.8 to 31.2 µg/mL (≈ 21.2 to 84.7 µM)
MFC [27]: 7.8 to 31.2 µg/mL (≈ 21.2 to 84.7 µM)
MFC [28]: 7.8 to 31.2 µg/mL (≈ 21.2 to 84.7 µM)
MBC [29]: 7.8 µg/mL (≈ 21.2 µM)
MFC [30]: 7.8 to 31.2 µg/mL (≈ 21.2 to 84.7 µM)
MBC [34]: 7.8 µg/mL (≈ 21.2 µM)
MFC [36]: 7.8 to 31.2 µg/mL (≈ 21.2 to 84.7 µM)
MBC [37]: 7.8 µg/mL (≈ 21.2 µM)
MFC [39]: 7.8 µg/mL (≈ 21.2 µM)
MFC [40]: 7.8 to 31.2 µg/mL (≈ 21.2 to 84.7 µM)
MIC [15]: > 125 µg/mL

MIC [1]: 7.8 µg/mL (≈ 20.4 µM)
MIC [2]: 15.6 µg/mL (≈ 40.8 µM)
MIC [19]: 7.8 µg/mL (≈ 20.4 µM)
MIC [3]: 15.6 µg/mL (≈ 40.8 µM)
MIC [4]: 15.6 µg/mL (≈ 40.8 µM)
MIC [5]: 15.6 µg/mL (≈ 40.8 µM)
MIC [6]: 15.6 µg/mL (≈ 40.8 µM)
MIC [7]: 15.6 µg/mL (≈ 40.8 µM)
MIC [8]: 15.6 µg/mL (≈ 40.8 µM)
MIC [9]: 31.2 µg/mL (≈ 81.5 µM)
MIC [10]: > 125 µg/mL
MIC [11]: 15.6 µg/mL (≈ 40.8 µM)
MIC [12]: 15.6 µg/mL (≈ 40.8 µM)
MIC [13]: 15.6 µg/mL (≈ 40.8 µM)
MIC [14]: > 125 µg/mL
MIC [16]: 7.8 µg/mL (≈ 20.4 µM)
SMILES: CCCCCCC(C/C=C\CCCCCCCC(=O)OC)NC(=O)[C@H](C)N (stereo partly drawn)
MBC [17]: 15.6 µg/mL (≈ 40.8 µM)
MBC [29]: 15.6 µg/mL (≈ 40.8 µM)
MBC [34]: 15.6 µg/mL (≈ 40.8 µM)
MBC [37]: 15.6 µg/mL (≈ 40.8 µM)
MIC [15]: > 125 µg/mL
